Test results published in patent US20190053490A1, “USE OF ACTIVE SUBSTANCES FOR CONTROLLING VIRUS INFECTION IN PLANTS” (Bayer CropScience Aktiengesellschaft, priority 2016, published 2019).

Columns and labels:
[1] = test system: ABA-dependent gene expression and ABA-induced stomatal closure; details: in vivo; cited from earlier work
[2] = test system: Cauliflower mosaic virus (CaMV); experiment: Antiviral efficacy against CaMV; format: in vivo; details: 100 ppm
Excerpt: (§1) Similar results were obtained with DFPM with the unrelated viruses Turnip crinkle virus (TCV,) and Cauliflower mosaic virus (CaMV). The TCV belongs to the Tombusviridae family and infects various types of plant species including the common plant models A. thaliana and N. benthamiana. Its genome is another example of +strand RNA virus. The CaMV belongs to the Caulimoviridae family. It infects mostly Brassicaceae such as turnip and cabbage, but is also able to infect A. thaliana. CaMV consists of a double-stranded DNA molecule.

[3] = test system: Bean pod mottle virus (BPMV-GFP); experiment: Antiviral efficacy against BPMV-GFP on soybean plants; format: in vivo; details: seven days-post-infection
Experimental: The Bean pod mottle virus (BPMV) is a plant pathogenic virus of the family Comoviridae. This virus infects legumes and more particularly soybean. BPMV genome consists of a bipartite positive-sense single-stranded RNA molecule (+ssRNA). The antiviral efficacy of silencing enhancers was tested with a fluorescently-tagged comoviruss (BPMV-GFP) in order to specifically pinpoint when and where the effect of the molecules is induced during virus primary infection, local or systemic spread.
Soybean plants were sprayed with 100 or 200 ppm of DFPM and emulsifiable concentrate (EC) Premix one day before to infect the plants with the BPMV-GFP virus. Twelve replicates were used for each condition.

[4] = test system: RNAi pathway (SUL transcript, SUL protein, SUL siRNAs) in SUC-SUL Arabidopsis plants; experiment: Molecular confirmation in four-week-old SUC-SUL Arabidopsis plants; format: in vivo; details: 200 ppm spray, seven days after treatment
Excerpt: The enhancing effect of DFPM on the RNAi machinery has been validated at the phenotypic and molecular levels. Four-week-old SUC-SUL Arabidopsis plants at rosette stage were sprayed with DFPM at 200 ppm. […] The plant aerial tissues were collected and analyzed molecularly using state-of-the-art methodologies. […] Furthermore, these effects were associated with an over-accumulation of both SUL 21-nt and 24-nt long siRNAs derived from the transgenic SUL.

[5] = test system: Turnip mosaic virus (TuMV-GFP); experiment: Antiviral efficacy against TuMV-GFP on Arabidopsis; format: in vivo; details: 100 or 200 ppm sprayed 3 days before infection
Experimental: The Turnip mosaic virus (TuMV) belongs to the Potyviridae, the largest family of known plant viruses. This virus infects a wide range of plants, in particular Brassicaceae. TuMV genome consists of a positive-sense single-stranded RNA molecule (+ssRNA). The antiviral efficacy of DFMP was tested with a fluorescently-tagged potyvirus (TuMV-GFP) in order to specifically pinpoint when and where the effect of the molecules is induced during virus primary infection, as well as its local or systemic spread.
Arabidopsis plants were sprayed with 100 or 200 ppm of DFMP 3 days before infecting the plants with the TuMV-GFP virus. Virus titers were measured by qPCR and/or virus protein accumulation on Western blot analyses and by counting the number of primary infection foci under UV light in the case of the TuMV-GFP.

[6] = test system: RNA silencing pathway (SULPHUR transcript) in SUC-SUL Arabidopsis reporter plants; experiment: SUC-SUL Arabidopsis reporter plants, percentage of chlorosis (seedlings); format: in vivo, A. thaliana; details: 300 ppm spray, seedlings five days post-germination, assessed 14 days after treatment
Excerpt: The plants' RNA silencing pathway can be easily monitored with certain artificially-created reporter plants called the “SUC-SUL Arabidopsis reporter plants” (Dunoyer et al., Nat. Genet. 37, 1356-1360, 2005). The SUC-SUL Arabidopsis reporter plants are transgenic plants expressing an inverted-repeat (IR) double-stranded RNA designed to target the SULPHUR (SUL) transcript in the vasculature under the control of the SUC2 promoter (Truernit et al., Planta 196(3), 564-570, 1995). Once expressed, the dsRNA is processed into small interfering RNAs directing non-cell autonomous post-transcriptional gene silencing of the SULPHUR transcript, in turn causing vein-centered chlorosis. Since the observed chlorosis results from the silencing of the SULPHUR transcript, an expansion of the chlorosis, observable directly on the plants, is correlated with an intensification of the RNA silencing pathway at the molecular level. […] The effects of the treatments on the SUC-SUL reporter plants were assessed 14 days after treatment under trans-illumination and digitally recorded with a stereo-microscope by measuring the surface and intensity of the chlorotic zone (percentage of chlorosis). […]

[7] = test system: Turnip crinkle virus (TCV); experiment: Antiviral efficacy against TCV; format: in vivo; details: 100 ppm
Excerpt: as §1

[8] = test system: PHYTOALEXIN DEFICIENT4 (PAD4) and ENHANCED DISEASE SUSCEPTIBILITY1 (EDS1); details: in vivo; cited from earlier work
[9] = test system: tobacco mosaic virus (TMV); details: cited from earlier work
[10] = test system: SA-inducible pathogenesis-related (PR)-1 proteins; details: infiltrated leaves; cited from earlier work
[11] = test system: Pseudomonas syringae pv tabaci; details: cited from earlier work
[12] = 100 ppm sprayed one day before infection
[13] = 200 ppm sprayed one day before infection

With `S=C(c1ccc(-c2ccc(Cl)c(Cl)c2)o1)N1CCCCC1` [DFPM, [5-(3,4-Dichlorophenyl)Furan-2-yl]-Piperidin-1-ylMethanethione] as the compound, how does the “ABA-dependent gene expression in plant” value [1] read?
Its value is “rapidly downregulates”.

What about the ABA-induced stomatal closure [1] of the same compound?
Its ABA-induced stomatal closure is “inhibits”.

And the “virus accumulation on inoculated leaves and systemic tissues (CaMV-derived P6 mRNA)” value [2]?
The value was “strong reduction”.

And the “BPMV fluorescence on soybean” value ([3]; 100 or 200 ppm)?
The value was “clear reduction”.

And the “number of plants showing BPMV symptoms” value ([3]; 100 or 200 ppm)?
Its value is “clear reduction”.

What about the “Average of Percentage of BPMV fluorescence” value [3, 12] of the same compound?
The value was 31%.

What about the “Percentage of plants showing BPMV symptoms” value [3, 12] of the same compound?
Its value is 55%.

What about the “Average of Percentage of BPMV fluorescence” value [3, 13] of the same compound?
The value was 8%.

And the “Percentage of plants showing BPMV symptoms” value [3, 13]?
The value was 10%.

And the “SUL 21-nt and 24-nt long siRNAs” value ([4]; aerial tissues)?
Its value is “over-accumulation”.

And the “SUL protein levels (Western blot)” value ([4]; aerial tissues)?
The value was “reductions in SUL protein levels”.

What about the “SUL transcript levels (real-time qRT-PCR, FIG. 1)” value ([4]; aerial tissues) of the same compound?
Its value is “reductions in SUL transcript levels”.

What about the “RNAi-dependent vein-centered chlorotic phenotype” value ([4]; vs DMSO only) of the same compound?
Its value is “clear expansion”.

And the “virus accumulation on inoculated leaves (infection foci, FIG. 2)” value ([5]; five days post-infection)?
Its value is “strong reduction”.

And the “accumulation of virus titers” value ([5]; five days-post-infection)?
Its value is “clear reduction”.

What about the “virus accumulation on systemic tissues (TuMV-derived HcPro mRNA levels, FIG. 3)” value ([5]; six days post-infection) of the same compound?
The value was “strong reduction”.

What about the percentage of chlorosis [6] of the same compound?
The percentage of chlorosis was “significant increase”.

What about the “virus accumulation on inoculated leaves and systemic tissues (TCV-derived P38 mRNA)” value [7] of the same compound?
The value was “strong reduction”.

And the “expression of plant defense-related genes including PAD4 and EDS1” value [8]?
Its value is “stimulates”.

Which results are given for `COC(=O)N(OC)c1ccccc1COc1ccn(-c2ccc(Cl)cc2)n1` [Pyraclostrobin]?
TMV resistance in NahG transgenic tobacco plants ([9]; NahG transgenic tobacco unable to accumulate salicylic acid): able to enhance TMV resistance; resistance of tobacco against infection by TMV ([9]; tobacco): enhance the resistance; accumulation of SA-inducible PR-1 proteins [10]: did not cause the accumulation; resistance of tobacco against infection by Pseudomonas syringae pv tabaci [11]: enhance the resistance
